Patent publication US6902933B2, “Surface transfection and expression procedure” (Regents of the University of Michigan, priority 2000, dated 2005)

Key:
Format in all cases: cell-based
[1] = system: cyclic AMP responsive promoter (pCRE-d2EGFP) in HEK-293T cells; experiment: STEP D1 activation experiment, control vector pCMV.Neo with pCRE-d2EGFP reporter; settings: HEK-293T cells transfected with control vector CMV.Neo and pCRE-d2EGFP; 48 hours; GFP fluorescence, MCID image analysis
Method: (§1) The purpose of the experiment was to measure activation of the D1 dopamine receptor by a D1 receptor agonist, Chloro-APB (C1-APB). Activation of the D1 receptor by C1-APB could be measured by virtue of it's coupling to adenylate cyclase and subsequent generation of cyclic AMP, as indicated by the pathway shown in FIG. 3.
(§2) Three hundred nanograms of pCMV.D1 (or control vector pCMV.Neo) and 300 ng of pCRE-d2EGFP in 10 microliters were mixed with 10 microliters of transferrin-polylysine complex (1 mg/ml). After 10 minutes, 10 microliters of lipofectamine (1 mg/ml) were added and the mixture incubated for an addition 10 minutes. Spots of approximately 100 nanoliters were placed onto four different polylysine coated microscope slides, and the spots allowed to dry under ambient room conditions. HEK-293T cells were then plated onto three slides, while one slide was grown only in media containing serum. The three slides plated with cells were grown in the presence of either C1-APB or the phosphodiesterase inhibitor IBMX or both C1-APB and IBMX.
(§3) After 48 hours, the cells were examined using fluorescence microscopy.

[2] = molecular target: T1, human D1 dopamine receptor (Homo sapiens, UniProt P21728); experiment: STEP D1 dopamine receptor activation assay with pCRE-d2EGFP reporter; settings: 48 hours, C1-APB 1 micromolar; for Pixels per spot in STEP D1 activation experiment: HEK-293T cells transfected with CMV.D1 and pCRE-d2EGFP, GFP fluorescence, MCID image analysis
T1 construct: expressed in transfected cells; host or cells: HEK-293T
Method: as §1
as §2, with “HEK-293T cells were then plated onto three slides, while one slide was grown only in media containing serum.” left out
as §3

[3] = system: tetracycline responsive element; experiment: Transactivation assay using a tetracycline inducible system (pBi-EGFP) after STEP transfection; settings: HEK TetOn cells; 10 mg/ml of doxycycline; 48 hours after plating
Method: To determine whether STEP transfection could be modified to generate inducible expression of a protein, the tetracycline inducible system developed by Bujard and coworkers was employed (Baron et al. (2000) Proc Natl Acad Sci USA 96:1013-1018). […] Two DNA complexes were prepared for these experiments, one containing the pBi-EGFP plasmid (Clontech) directing the expression of EGFP under the control of a tetracycline responsive element and another complex containing pEGFP-C1 plasmid DNA (Clontech) with EGFP expression under the control of the strong human cytomegalovirus early promoter. Spots for each of these complexes were applied next to each other on each of two different microscope slides and HEK TetOn cells were plated onto each slide in separate 10 cm culture dishes. Twenty-four hours after transfection, one plate was incubated in DMEM and 10% FCS while the other was incubated in the same media containing 10 mg/ml of doxycycline. Fluorescence photomicrographs were prepared 48 hours after plating of the cells. […] In the absence of doxycycline, none of the cells on the pBiEGFP spot were fluorescent while approximately 30% of the cells on the pEGFP-C1 spot were fluorescent.

human MC1R = molecular target: T2, human MC1R (Homo sapiens, UniProt Q01726); experiment: Dose response of melanocortin receptor 1 agonists, pCRE-Luciferase reporter, 96 well STEP; settings: increasing concentrations, 6 hours; HEK-239T cells; FIG. 8
T2 construct: expressed in transfected cells; host or cells: HEK-293T
Method: In the following examples a polylysine coated 96 well plate was used. DNA transfection complexes were generated essentially as described in Example 1. The components a-d from Example 1 were added sequentially but without the 5 min. incubation. The DNA transfection complexes were applied by direct pipetting (complexes can also be applied by automated liquid handling systems) to the bottom of each well in a total volume of 20 μl, and the spots were allowed to dry under ambient conditions until completely dry. HEK-293T cells were prepared as in Example 1.200 μl of media containing 10^4 HEK-293T cells were added to each well. When using the expression vector pZsGreen-N1 (Clontech BD), which encodes a variant of wild-type Zoanthus sp. green fluorescent protein ZsGreen; (excitation maximum=496 nm; emission maximum=506 nm. Ref: Matz, M. V., et al. (1999) Nature Biotech. 17:969-973), the cells were visualized using fluorescent microscopy after 24 and 48 hours following transfections.
DNA complexes were formed with human MC1R cDNA (GenBank Accession No. X67594) and with either pCRE-Luciferase or the control plasmid pTal-Luciferase (lacking the CRE binding sequences). The complexes were applied to the surface of individual wells of a polylysine coated 96 well plate; after complete drying, HEK-239T cells were then added. […]

[4] = system: rat PC-12 pheochromocytoma; experiment: STEP transfection efficiency with different cell surface ligands in the transfection complex; settings: PC-12 cells; ligand in the transfection complex; GFP fluorescence; penton protein 0.64 mg/ml
Method: In the following experiments, transfection complexes were formed as described in Example 1, except that in the preparation of some transfection complexes, purified penton protein was used instead of transferring the penton protein was used at a concentration of 0.64 mg/ml. Transfection complexes were thus prepared with either transferrin or penton protein. After immobilizing the complexes as described in Example 1, the cell lines rat PC-12 pheochromocytoma and HEK-293T were transfected as described in Example 1.
The results are shown in FIG. 4 as sets of images; the cell line is indicated at the top of the images, and the ligand used in the transfection complex is indicated to the right of the images. The images under each indicated cell line are either brightfield images (to the left) or fluorescence images (to the right).

T1 sequence (P21728 whole entry): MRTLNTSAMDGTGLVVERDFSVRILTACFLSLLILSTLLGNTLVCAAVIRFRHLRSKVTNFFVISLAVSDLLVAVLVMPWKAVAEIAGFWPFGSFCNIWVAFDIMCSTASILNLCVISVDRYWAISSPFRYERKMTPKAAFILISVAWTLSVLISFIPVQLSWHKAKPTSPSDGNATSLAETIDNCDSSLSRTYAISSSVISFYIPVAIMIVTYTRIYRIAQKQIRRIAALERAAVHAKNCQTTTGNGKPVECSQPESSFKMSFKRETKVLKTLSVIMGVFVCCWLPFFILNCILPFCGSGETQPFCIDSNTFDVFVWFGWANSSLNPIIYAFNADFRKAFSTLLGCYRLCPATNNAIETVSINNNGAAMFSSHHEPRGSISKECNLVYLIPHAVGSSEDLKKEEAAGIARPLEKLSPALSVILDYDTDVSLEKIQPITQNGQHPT
T2 sequence (Q01726 whole entry): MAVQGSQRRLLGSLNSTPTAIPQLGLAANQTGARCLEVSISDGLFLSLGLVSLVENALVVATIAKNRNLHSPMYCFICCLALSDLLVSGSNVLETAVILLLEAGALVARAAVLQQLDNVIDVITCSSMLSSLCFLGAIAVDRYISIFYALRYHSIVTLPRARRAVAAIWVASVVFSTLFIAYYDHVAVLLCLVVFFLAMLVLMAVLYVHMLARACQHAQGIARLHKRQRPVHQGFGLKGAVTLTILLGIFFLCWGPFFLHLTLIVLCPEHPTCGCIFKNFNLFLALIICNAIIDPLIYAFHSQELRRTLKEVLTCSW

Compound | Pixels per spot in STEP D1 activation experiment [2] | luciferase activity, dose response curve of the MC1R (human MC1R) | Pixels per spot in STEP D1 activation experiment [1] | further results
C=CCN1CCc2c(cc(O)c(O)c2Cl)C(c2ccccc2)C1 (stereo not drawn) [Cl-APB, Chloro-APB] | 447 + 38 pixels per spot | – | 46 + 38 pixels per spot | expression of the green fluorescent protein reporter ([2]; cells expressing the D1 receptor, fluorescence microscopy): significantly greater expression
C[C@H]1c2cccc(O)c2C(=O)C2=C(O)[C@]3(O)C(=O)C(C(N)=O)=C(O)[C@@H](N(C)C)[C@@H]3[C@@H](O)[C@@H]21 [doxycycline] | – | – | – | cells on the pBi-EGFP spot with detectable GFP expression [3]: 20%
transferrin: ligand for a receptor which is endocytosed, used as complexing agent in the transfection complex | – | – | – | transfection efficiency [4]: less than 10%

The next lines start with results.

Pixels per spot in STEP D1 activation experiment [2] | luciferase activity, dose response curve of the MC1R (human MC1R) | Compound | Pixels per spot in STEP D1 activation experiment [1] | further results
165 + 35 pixels per spot | – | CC(C)Cn1c(=O)n(C)c(=O)c2[nH]cnc21 [UBMX, IBMX] | 65 + 32 pixels per spot | –
– | signal is well above background | N-acetyl-[Cys^4,10,D-Phe^7]-αMSH | – | –
– | signal is well above background | αMSH | – | –
